Laboratory results from patent US10772967B2, “Enhanced anticancer agent” (priority 2014, dated 2020).
Read-outs that look alike come from different tables or passages of the source. One block for each molecule: values may come before it.

Legend:
[1] = Dose escalation of AG10 in rats, plasma concentration; settings: i.v., initial rapid decline of total plasma concentration
Method: Adult male Wistar rats, body weight ranging 160-200 g, were used for the study. […] Blood samples were collected at 0.08, 2, 4, 8, and 24 hour time intervals. The plasma samples were prepared by centrifugation at 15,000 RPM for 5 min. The resultant plasma was precipitated using 2× solvent B (95:5, Methanol-Water, 0.1% TFA).

[2] = test system: T1, trypsin; assay: Trypsin cleavage experiment in buffer, 7-AMC release; type: biochemical; settings: hTTR present
T1 construct: purchased Gibco TrypLE Express
Method: We used trypsin to test the ability of hTTR to protect TLHE1-peptide conjugate (Conj1) from proteolysis in buffer. FIG. 14 illustrates the protection effect of binding to TTR on the stability of Conj1 in vitro. hTTR protects Conj1 against trypsin hydrolysis in buffer, according to some embodiments.
AFU is arbitrary fluorescence units.
The experiment was performed in quadruplicate.

[3] = Stability against proteolytic hydrolysis in human serum; settings: human serum pre-incubated with AG10 (10 μM)
Source text: The amounts of compounds remaining in serum were quantitated at different time-points.

[4] = Pharmacokinetic profile of Conj3 and Conj4 in rats; settings: i.v.
Method: (§1) The concentration of test compounds in plasma was determined using validated HPLC method and plotted as a function of time after dosing. Concentrations are expressed as means (±SEM).
(§2) Jugular vein cannulated Sprague-Dawley male rats (200-220 g, 49-52 days old) were used for this study. An extension catheter was attached to the indwelling jugular vein cannula to facilitate remote sampling. The animals were randomly divided into two groups (N=3 or 4): control group and treatment group. […] Simultaneously, the control group was pretreated with vehicle (sterile water) followed by a single combined intravenous dose of molar equivalent of all test compounds as described above. Plasma was collected from each rat and precipitated using 2× solvent B (95:5, Methanol-Water, 0.1% TFA).

[5] = rat, in vivo, iv
Method: as §1, §2

[6] = Chemical stability in serum and simulated gastric acid; type: in vitro ADME; settings: at least 48 h
Source text: Therefore, TLHE1 is a very good candidate for conjugation to peptides.

T1 sequence (P35049 25-248): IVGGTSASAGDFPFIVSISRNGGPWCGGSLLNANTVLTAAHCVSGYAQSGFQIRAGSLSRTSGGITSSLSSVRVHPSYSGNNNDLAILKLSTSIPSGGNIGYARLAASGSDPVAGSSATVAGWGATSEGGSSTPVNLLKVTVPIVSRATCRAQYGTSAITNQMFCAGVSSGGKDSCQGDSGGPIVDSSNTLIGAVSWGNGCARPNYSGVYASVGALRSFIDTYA

Structure (SMILES): Cc1cc(=O)oc2cc(NC(=O)C(CCCCN)NC(=O)CNC(=O)C(CCCNC(=N)N)NC(=O)CCOCCOCCOCCN=[N+]=[N-])ccc12 (stereo not drawn) [Arg-Gly-Lys-MCA]
protection against proteolysis in the presence of hTTR (in words) [2]: no protection against proteolysis

Structure (SMILES): CC[C@H](C)[C@H](NC(=O)[C@H](Cc1ccc(O)cc1)NC(=O)[C@@H]1CCCN1C(=O)[C@H](CCCNC(=N)N)NC(=O)[C@H](CCCNC(=N)N)NC(=O)[C@@H]1CCCN1C(=O)[C@H](CCCCN)NC(=O)[C@H](CC(N)=O)NC(=O)[C@H](CCC(=O)O)NC(=O)[C@H](Cc1ccc(O)cc1)NC(=O)[C@H](CC(C)C)NC(=O)[C@H](CCC(=O)O)NC(=O)CCOCCOCCOCCn1cc(CCCOc2cc(OCCCc3c(C)n[nH]c3C)cc(C(=O)O)c2)nn1)C(=O)N[C@@H](CC(C)C)C(=O)O [Conj2]
amount remaining after 24 h in serum pre-incubated with AG10 ([3]; 24 h): no detectable amount

Structure (SMILES): Cc1n[nH]c(C)c1CCCOc1cc(OCCCc2cn(CCOCCOCCOCCC(=O)NC(CCC(=O)O)C(=O)NC(Cc3c[nH]cn3)C(=O)NC(Cc3c[nH]c4ccccc34)C(=O)NC(CO)C(=O)NC(Cc3ccc(O)cc3)C(=O)NCC(=O)NC(CC(C)C)C(=O)NC(CCCNC(=N)N)C(=O)N3CCCC3C(=O)NCC(N)=O)nn2)cc(C(=O)O)c1 (centres unmarked) [Conj3]
amount remaining after 48 h in serum pre-incubated with AG10 ([3]; 48 h): no detectable amount

Structure (SMILES): Cc1n[nH]c(C)c1CCCOc1cc(OCCCc2cn(CCOCCOCCOCCC(=O)NCCCCC(NC(=O)C(Cc3ccc(O)cc3)NC(=O)C(CO)NC(=O)C(Cc3c[nH]c4ccccc34)NC(=O)C(Cc3c[nH]cn3)NC(=O)C3CCC(=O)N3)C(=O)NC(CC(C)C)C(=O)NC(CCCNC(=N)N)C(=O)N3CCCC3C(=O)NCC(N)=O)nn2)cc(C(=O)O)c1 (centres unmarked) [Conj4]
time present in circulation [4]: at least 12 h

Other lines, results leading:

initial half-life [1]: 5 to 20 min
Structure (SMILES): Cc1n[nH]c(C)c1CCCOc1cc(C(=O)O)ccc1F [AG10]

plasma levels after 2 h of administration [4]: no detectable levels
Structure (SMILES): CC(C)C[C@H](NC(=O)[C@@H](CCCCN)NC(=O)[C@H](Cc1ccc(O)cc1)NC(=O)[C@H](CO)NC(=O)[C@H](Cc1c[nH]c2ccccc12)NC(=O)[C@H](Cc1cnc[nH]1)NC(=O)[C@@H]1CCC(=O)N1)C(=O)N[C@@H](CCCNC(=N)N)C(=O)N1CCC[C@H]1C(=O)NCC(N)=O [GnRH-A, reference compound]

plasma levels after 2 h of administration [5]: no detectable levels
Structure (SMILES): CC(C)C[C@H](NC(=O)[C@@H](CCCCNC(=O)CCOCCOCCOCCN=[N+]=[N-])NC(=O)[C@H](Cc1ccc(O)cc1)NC(=O)[C@H](CO)NC(=O)[C@H](Cc1c[nH]c2ccccc12)NC(=O)[C@H](Cc1c[nH]cn1)NC(=O)[C@@H]1CCC(=O)N1)C(=O)N[C@@H](CCCNC(=N)N)C(=O)N1CCC[C@H]1C(=O)NCC(N)=O [GnRH-A-Linker]

degradation [6]: < 3%
Structure (SMILES): C#CCCCOc1cc(OCCCc2c(C)n[nH]c2C)cc(C(=O)O)c1 [TLHE1, 3-(3-(3,5-dimethyl-1H-pyrazol-4-yl)propoxy)-5-(pent-4-yn-1-yloxy)benzoic Acid]
